We go through seven molecules from US9751862B2, “Pesticidally active substituted pyridyl carboxamides” (Syngenta Participations AG, priority 2014, dated 2017).

Common to all, as to assay type: in vivo
Experiment [1] deals with Myzus persicae (Green Peach Aphid). Briefly: Activity against Myzus persicae (mixed population, feeding/residual contact activity, preventive), sunflower leaf discs. As to conditions: foliar, 144 h, read-out: activity (mortality). On the procedure:
Sunflower leaf discs were placed on agar in a 24-well microtiter plate and sprayed with test solutions. After drying, the leaf discs were infested with an aphid population of mixed ages. After an incubation period of 6 days, samples were checked for mortality and special effects (e.g. phytotoxicity).

Experiment [2] has the same test system. As to the kind of experiment: Activity against Myzus persicae (mixed population, systemic/feeding activity, curative), pea seedlings. Conditions: 144 h, pea seedling roots in test solution, 6 days after introduction. The text has this: Example B2: Activity Against Myzus persicae (Green Peach Aphid) (Mixed Population, Systemic/Feeding Activity, Curative)
Pea seedlings, infested with an aphid population of mixed ages, were placed with the roots directly in the test solutions. 6 days after introduction, samples were checked for mortality and special effects on the plant.

The next experiment deals with Bemisia tabaci. Briefly: Activity against Bemisia tabaci (adults on cotton, contact, preventative). Conditions: foliar, 168 h, sprayed cotton leaf discs, adult white flies, 7 DAT. On the procedure: Example B3: Activity Against Bemisia tabaci, (Adults on Cotton, Contact, Preventative)
Cotton leaf discs are placed on agar in a 24-well microtiter plate and sprayed with test solutions. After drying, the leaf discs are infested with adult white flies. After an incubation period of 7 DAT, samples are checked for mortality and special effects (e.g. phytotoxicity).

Experiment [3] deals with Frankliniella occidentalis (Western Flower Thrips). Briefly: Activity against Frankliniella occidentalis (mixed population, contact/feeding), bean plants. Conditions: 200 ppm; sprayed bean plants; 14 days after infestation. On the procedure:
Example B4: Activity Against Frankliniella occidentalis (Western Flower Thrips) (Mixed Population, Contact/Feeding)
Bean plants were treated with diluted test solutions in a spray chamber. After drying, plants were infested with a thrips population of mixed ages. 14 days after the infestation, samples were checked for damage reduction compare to the non treated samples.

Setting [4] is: 200 ppm, sprayed sunflower leaf discs, 6 days incubation.

Where two headings read alike, the source gives them in different places.

Consider `Cc1cc(/C(C#N)=N/O)cnc1-n1ncc(C(=O)N(C)c2cccnc2)c1C` [Compound 1.007, 1-[5-[(Z)-C-cyano-N-hydroxy-carbonimidoyl]-3-methyl-2-pyridyl]-N,5-dimethyl-N-(3-pyridyl)pyrazole-4-carboxamide], for which the mortality – broadly, the share of the test organisms that died – at 200 ppm in experiment [1] (setting [4]) was ≥ 80%. The mortality at 24 ppm in experiment [2] is > 80%.

Regarding `Cc1cc(CC#N)cnc1-n1ncc(C(=O)N(C)c2cccnc2)c1C` [Compound 1.001, 1-[5-(cyanomethyl)-3-methyl-2-pyridyl]-N,5-dimethyl-N-(3-pyridyl)pyrazole-4-carboxamide], the mortality at 200 ppm in experiment [1] (setting [4]) was ≥ 80%; with Bemisia tabaci it was > 80%. For the same molecule, the mortality at 24 ppm in experiment [2] was > 80%. As to `Cc1cc(C(C)C#N)cnc1-n1ncc(C(=O)N(C)c2cccnc2)c1C` (stereo not shown) [Compound 1.003, 1-[5-(1-cyanoethyl)-3-methyl-2-pyridyl]-N,5-dimethyl-N-(3-pyridyl)pyrazole-4-carboxamide], the mortality at 200 ppm in experiment [1] (setting [4]) is ≥ 80%. In experiment [3], the “activity (damage reduction compared to non treated samples)” value is reported as “over 80%”. Turning to `CCO/N=C(\C#N)c1cnc(-n2ncc(C(=O)N(C)c3cccnc3)c2C)c(C)c1` [Compound 1.008, (3E/Z)-N-ethoxy-5-methyl-6-[5-methyl-4-[methyl(3-pyridyl)carbamoyl]pyrazol-1-yl]pyridine-3-carboximidoyl cyanide], the mortality at 200 ppm in experiment [1] was ≥ 80%.

For `Cc1cc(C2(C#N)CC2)cnc1-n1ncc(C(=O)N(C)c2cccnc2)c1C` [Compound 1.002, 1-[5-(1-cyanocyclopropyl)-3-methyl-2-pyridyl]-N,5-dimethyl-N-(3-pyridyl)pyrazole-4-carboxamide], in experiment [1] (setting [4]), the mortality at 200 ppm was ≥ 80%. In addition, the mortality at 24 ppm in experiment [2] is > 80%. The like results for `Cc1cc(C(C)(C)C#N)cnc1-n1ncc(C(=O)N(C)c2cccnc2)c1C` [Compound 1.004, 1-[5-(1-cyano-1-methyl-ethyl)-3-methyl-2-pyridyl]-N,5-dimethyl-N-(3-pyridyl)pyrazole-4-carboxamide] were, in that order, ≥ 80% and > 80%. For `CCOC(=O)C(CC)c1cnc(-n2ncc(C(=O)N(C)c3cccnc3)c2C)c(C)c1` (stereo not shown) [Compound 1.009], the mortality at 200 ppm in experiment [1] (setting [4]) is ≥ 80%.
